The structures appear in SMILES notation. Counter-ions that a name gives are not always drawn. Like-named read-outs stand apart in the source and are kept apart here.

Series [1] relates to HCoV-OC43. The experiment in a line: microbe, parasite or virus in culture. The settings on record: for IC50: read-out: IC50, HCoV-OC43 antiviral assay. The format is cell-based.
The test system of series [2] is A549 cells. As to conditions: human.
The test system of series [3] is A549 cells. The experiment in a line: Compound toxicity assay, live cell imaging of A549 cell growth. The settings on record: compared to DMSO.
Series [4] has as its target SARS-CoV-2 M^pro (Severe acute respiratory syndrome coronavirus 2, UniProt P0DTD1). The experiment in a line: cell-based. The settings on record: transfected HEK-293T cells, 24 h; for IC50: read-out: IC50 (approximate), SARS-CoV-2 M^pro activity, GFP normalized to TagBFP2.
For series [5], the target named is c-Kit enzyme (Homo sapiens, UniProt P10721). The experiment in a line: Luminescence-based in vitro c-Kit kinase assay. The format is biochemical.
Sequence of c-Kit enzyme (P10721 26-976): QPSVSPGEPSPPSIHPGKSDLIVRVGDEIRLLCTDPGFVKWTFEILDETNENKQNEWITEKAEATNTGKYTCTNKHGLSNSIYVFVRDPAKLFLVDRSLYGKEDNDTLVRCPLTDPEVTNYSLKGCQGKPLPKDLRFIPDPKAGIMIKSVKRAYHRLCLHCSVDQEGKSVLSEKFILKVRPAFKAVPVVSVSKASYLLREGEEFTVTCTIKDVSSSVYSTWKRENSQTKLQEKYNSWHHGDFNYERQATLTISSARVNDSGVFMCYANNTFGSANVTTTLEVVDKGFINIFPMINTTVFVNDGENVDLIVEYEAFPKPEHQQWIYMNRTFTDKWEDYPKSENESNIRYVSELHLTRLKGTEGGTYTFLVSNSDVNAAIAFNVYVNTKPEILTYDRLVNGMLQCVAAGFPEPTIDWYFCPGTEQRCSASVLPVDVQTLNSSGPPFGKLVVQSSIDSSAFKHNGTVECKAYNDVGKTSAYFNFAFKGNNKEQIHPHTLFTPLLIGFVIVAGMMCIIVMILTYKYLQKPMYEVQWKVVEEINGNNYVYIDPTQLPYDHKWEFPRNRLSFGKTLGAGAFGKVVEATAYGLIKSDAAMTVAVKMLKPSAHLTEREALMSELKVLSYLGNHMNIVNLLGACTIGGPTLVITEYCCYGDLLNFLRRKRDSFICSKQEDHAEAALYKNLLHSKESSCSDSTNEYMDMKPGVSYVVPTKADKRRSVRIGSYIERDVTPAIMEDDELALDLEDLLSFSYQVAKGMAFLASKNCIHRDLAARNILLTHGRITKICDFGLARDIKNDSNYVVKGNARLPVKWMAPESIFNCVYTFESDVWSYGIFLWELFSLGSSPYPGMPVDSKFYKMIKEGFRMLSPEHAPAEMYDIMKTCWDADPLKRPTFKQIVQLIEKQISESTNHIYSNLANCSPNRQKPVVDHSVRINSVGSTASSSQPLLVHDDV
In series [6] the target is M^pro. As to conditions: masitinib activity on M^pro; read-out: inhibition constant, Ki; cited from earlier work.
[7] abbreviates: A549+hACE2 cells, MOI 0.1, 48 h, normalized to DMSO.

As for `CC(=O)Nc1ccc(C)c(Nc2nc(-c3cccnc3)cs2)c1` [M4], the IC50 in series [1] (Betacoronavirus 1, OC43, 48 h) was 5.7 µM. The “Doubling Time” value in series [2] (0.3 µM) is given as 22.01 h; in series [2] (1 µM) it was 21.47 h; in series [2] (3 µM), 22.28 h; in series [2] (10 µM), 37.36 h.

Take `Cc1ccc(NC(=O)c2ccc(CN3CCN(C)CC3)cc2)cc1Nc1nc(-c2cccnc2)cs1` [masitinib (TFA), Masitinib trifluoroacetate salt]: the “effect on cell growth (in words)” value in series [3] (3 µM dose) was “still inhibited cell division”; in series [3] (10 µM compound dose) it was “completely inhibited cell growth”. The half-maximal inhibitory concentration (IC50) in series [1] (setting [7]) is 3.98 µM.

Regarding `Cc1ccc(C(=O)Nc2ccc(C)c(Nc3nc(-c4cccnc4)cs3)c2)cc1` [M3], the concentration for half-maximal inhibition (IC50) in series [4] came to 2.54 µM; in series [1] (Betacoronavirus 1, OC43, 48 h), 3.99 µM; in series [5], 0.077 µM. The “Doubling Time” value is recorded as 22.13 h in series [2] (0.3 µM), 21.49 h in series [2] (1 µM), 22.49 h in series [2] (3 µM) and 30.76 h in series [2] (10 µM).

As for `Cc1ccc(NC(=O)c2ccc(CN3CCN(C)CC3)c(O)c2)cc1Nc1nc(-c2cccnc2)cs1` [M1], in series [4], the “IC50 (approximate), SARS-CoV-2 M^pro activity, GFP normalized to TagBFP2” value is listed as “did not show inhibition of M^pro activity”. The half-maximal inhibitory concentration (IC50) in series [1] (Betacoronavirus 1, OC43, 48 h) came to 4.7 µM; in series [5], 1.09 µM. For the same molecule, the “Doubling Time” value came to 21.75 h in series [2] (0.3 µM), 21.89 h in series [2] (1 µM), 23.72 h in series [2] (3 µM) and 52.78 h in series [2] (10 µM).

Take `Cc1ccc(NC(=O)c2ccc(CN3CCN(C)CC3)cc2)cc1Nc1nc(-c2cccnc2)cs1` [masitinib (Original), masitinib]: the concentration for half-maximal inhibition (IC50) in series [1] (Betacoronavirus 1, OC43, 48 h) was determined as 1.71 µM.

`Cc1ccc(NC(=O)c2ccc(CN3CCN(C)CC3)cc2O)cc1Nc1nc(-c2cccnc2)cs1` [M2]: the half-inhibitory concentration (IC50) in series [4] came to 8.35 µM; in series [1] (Betacoronavirus 1, OC43, 48 h), 6.77 µM; in series [5], 0.233 µM. Further, the “Doubling Time” value in series [2] (0.3 µM) came out at 21.52 h; in series [2] (1 µM), 21.44 h; in series [2] (3 µM), 21.57 h; in series [2] (10 µM), 33.63 h.

Regarding `Cc1ccc(NC(=O)c2ccc(CN3CCN(C)CC3)cc2)cc1Nc1nc(-c2cccnc2)cs1` [masitinib], the inhibition constant Ki in series [6] is 2.6 µM.

Take `Cc1ccc(OC(=O)c2ccc(CN3CCN(C)CC3)cc2)cc1Nc1nc(-c2cccnc2)cs1` [M5]: the “IC50, HCoV-OC43 antiviral assay” value in series [1] (setting [7]) is “no measurable antiviral activity”. For the same molecule, the “Doubling Time” value came to 22.37 h in series [2] (0.3 µM), 21.95 h in series [2] (1 µM), 21.83 h in series [2] (3 µM) and 25.19 h in series [2] (10 µM).
